The values below come from ChEMBL document CHEMBL4004877, “Synthesis and biological evaluation of chalcone, dihydrochalcone, and 1,3-diarylpropane analogs as anti-inflammatory agents” (Bioorg Med Chem Lett, 2017).

Converted amounts (≈) assume the structure as drawn.

Series [1] relates to RAW264.7. As to the kind of experiment: Antiinflammatory activity in mouse RAW264.7 cells assessed as inhibition of LPS induced iNOS-dependent nitric oxide production at 1.25 ug/ml after 24 hrs by Griess assay relative to control. The series is classed as functional. The note with it: RAW264.7, 24 h. A general note: Nitrite, measured by Griess reagent, commonly stands in for NO production.

Series [2] is described as follows: Cytotoxicity against LPS-stimulated mouse RAW264.7 cells assessed as cell viability at 2.5 ug/ml after 24 hrs by MTT assay relative to control. The series is classed as cell-based. As to conditions: LPS-stimulated RAW264.7 cells, read-out: Activity. On the technique in general: Tetrazolium assays rely on reduction of a dye to a coloured formazan, in cell work by metabolically active cells.

A short description of series [3]: Cytotoxicity against LPS-stimulated mouse RAW264.7 cells assessed as cell viability at 10 ug/ml after 24 hrs by MTT assay relative to control. The series is classed as cell-based. The note with it: LPS-stimulated RAW264.7 cells, read-out: Activity.
Series [4] concerns RAW264.7. As to the kind of experiment: Antiinflammatory activity in mouse RAW264.7 cells assessed as inhibition of LPS induced iNOS-dependent nitric oxide production at 10 ug/ml after 24 hrs by Griess assay relative to control. The series is classed as functional. As to conditions: RAW264.7, 24 h.
Series [5] concerns RAW264.7. The experiment in a line: Antiinflammatory activity in mouse RAW264.7 cells assessed as inhibition of LPS induced iNOS-dependent nitric oxide production at 5 ug/ml after 24 hrs by Griess assay relative to control. Type of series: functional. As to conditions: RAW264.7, 24 h.
Series [6] can be described thus: Cytotoxicity against LPS-stimulated mouse RAW264.7 cells assessed as cell viability at 5 ug/ml after 24 hrs by MTT assay relative to control. The series is classed as cell-based. As to conditions: LPS-stimulated RAW264.7 cells, read-out: Activity.
The test system of series [7] is RAW264.7. The experiment in a line: Antiinflammatory activity in mouse RAW264.7 cells assessed as inhibition of LPS induced iNOS-dependent nitric oxide production at 2.5 ug/ml after 24 hrs by Griess assay relative to control. Type of series: functional. The note with it: RAW264.7, 24 h.
Series [8] can be described thus: Cytotoxicity against LPS-stimulated mouse RAW264.7 cells assessed as cell viability at 1.25 ug/ml after 24 hrs by MTT assay relative to control. Type of series: cell-based. The note with it: LPS-stimulated RAW264.7 cells, read-out: Activity.
The subject of series [9] is RAW264.7. The experiment in a line: Antiinflammatory activity in mouse RAW264.7 cells assessed as inhibition of LPS induced iNOS-dependent nitric oxide production after 24 hrs by Griess assay. Type of series: functional, cell-based. The note with it: RAW264.7, 24 h.

With `COc1ccc(CCCc2cccc(OC)c2OC)c(O)c1`, the inhibition at 1.25 µg/mL in the series with RAW264.7 [1] was 21.5%. The viability at 24 h, 2.5 ug/ml in [2] was determined as 99%. Also, in series [3], the viability at 24 h, 10 ug/ml was determined as 63%. Besides, the inhibition at 10 µg/mL with RAW264.7 [4] was determined as 54.4%. The inhibition at 5 µg/mL in the series with RAW264.7 [5] was 30.7%. Besides, the viability at 24 h, 5 ug/ml in [6] came out at 95.2%. Moreover, the inhibition at 2.5 µg/mL with RAW264.7 [7] stood at 30.3%. The viability at 24 h, 1.25 ug/ml in series [8] is 99.1%. The IC50 in the series on RAW264.7 [9] turned out to be 8.79 µg/mL (≈ 29.1 µM).

`COc1ccc(OC)c(CCCc2cccc(O)c2)c1`: the inhibition at 1.25 µg/mL with RAW264.7 [1] came out at 1.5%. For the same compound, the viability at 24 h, 2.5 ug/ml in series [2] was 98.2%. Moreover, the viability at 24 h, 10 ug/ml in series [3] was 92.2%. Further, the inhibition at 10 µg/mL with RAW264.7 [4] came to 38.9%. Further, the inhibition at 5 µg/mL with RAW264.7 [5] came out at 36.8%. The viability at 24 h, 5 ug/ml in [6] amounted to 93.5%. For the same compound, the inhibition at 2.5 µg/mL with RAW264.7 [7] is 19.9%. In series [8], the viability at 24 h, 1.25 ug/ml is 101%. Besides, the IC50 with RAW264.7 [9] was above 10 µg/mL.

Take `COc1ccc(CCCc2ccc3c(c2)OCO3)c(O)c1`: the inhibition at 1.25 µg/mL in the series on RAW264.7 [1] was 32.6%. Also, the viability at 24 h, 2.5 ug/ml in series [2] amounted to 95.3%. In addition, in [3], the viability at 24 h, 10 ug/ml amounted to 15.6%. Moreover, the inhibition at 10 µg/mL with RAW264.7 [4] is 85.9%. In addition, the inhibition at 5 µg/mL with RAW264.7 [5] was determined as 54.1%. Further, the viability at 24 h, 5 ug/ml in series [6] was determined as 71.4%. In the series with RAW264.7 [7], the inhibition at 2.5 µg/mL amounted to 39.4%. Further, the viability at 24 h, 1.25 ug/ml in series [8] is 97.5%. In the series on RAW264.7 [9], the IC50 was determined as 4.12 µg/mL (≈ 14.4 µM).

In the case of `COc1ccc(C(=O)CCc2ccc(OC)cc2OC)c(O)c1`, the inhibition at 1.25 µg/mL in the series on RAW264.7 [1] was 3%. In addition, the viability at 24 h, 2.5 ug/ml in series [2] came out at 96.2%. In [3], the viability at 24 h, 10 ug/ml stood at 83.4%. Besides, in the series with RAW264.7 [4], the inhibition at 10 µg/mL came out at 21.6%. For the same compound, the inhibition at 5 µg/mL in the series on RAW264.7 [5] worked out at 9%. The viability at 24 h, 5 ug/ml in [6] came out at 87.4%. Also, in the series with RAW264.7 [7], the inhibition at 2.5 µg/mL stood at 3.4%. For the same compound, in series [8], the viability at 24 h, 1.25 ug/ml amounted to 97.8%. Further, the IC50 with RAW264.7 [9] was above 10 µg/mL.

Consider `COc1ccc(CCC(=O)c2cccc(O)c2)cc1`, for which the inhibition at 1.25 µg/mL in the series on RAW264.7 [1] turned out to be 5.1%. For the same compound, the viability at 24 h, 2.5 ug/ml in [2] stood at 97.1%. Besides, in series [3], the viability at 24 h, 10 ug/ml was determined as 86.3%. In the series on RAW264.7 [4], the inhibition at 10 µg/mL came out at 40.5%. For the same compound, in the series with RAW264.7 [5], the inhibition at 5 µg/mL came to 20.1%. For the same compound, the viability at 24 h, 5 ug/ml in [6] was 94.5%. Further, in the series on RAW264.7 [7], the inhibition at 2.5 µg/mL was determined as 11%. In addition, the viability at 24 h, 1.25 ug/ml in series [8] was 97.5%. Also, the half-maximal inhibitory concentration (IC50) with RAW264.7 [9] was above 10 µg/mL.

As for `COc1ccc(C(=O)CCc2ccc3c(c2)OCO3)c(O)c1`, the inhibition at 1.25 µg/mL in the series with RAW264.7 [1] is 5.1%. Besides, the viability at 24 h, 2.5 ug/ml in series [2] was 96.8%. In addition, the viability at 24 h, 10 ug/ml in [3] came out at 94.4%. In the series with RAW264.7 [4], the inhibition at 10 µg/mL was determined as 25.9%. Also, the inhibition at 5 µg/mL in the series on RAW264.7 [5] is 14.1%. Also, in series [6], the viability at 24 h, 5 ug/ml was 96.2%. Further, the inhibition at 2.5 µg/mL with RAW264.7 [7] is 10.6%. Besides, the viability at 24 h, 1.25 ug/ml in series [8] was determined as 99.8%. Further, the IC50 with RAW264.7 [9] is above 10 µg/mL.

On to `COc1ccc(CCCc2ccc(OC)c(OC)c2)cc1O`, for which the inhibition at 1.25 µg/mL in the series with RAW264.7 [1] stood at 32.4%. The viability at 24 h, 2.5 ug/ml in [2] turned out to be 95.5%. Further, the viability at 24 h, 10 ug/ml in series [3] came out at 51.9%. Further, the inhibition at 10 µg/mL in the series with RAW264.7 [4] is 83.6%. In addition, the inhibition at 5 µg/mL in the series with RAW264.7 [5] is 57.4%. The viability at 24 h, 5 ug/ml in series [6] was 86.2%. In addition, in the series with RAW264.7 [7], the inhibition at 2.5 µg/mL came to 36.3%. Also, the viability at 24 h, 1.25 ug/ml in series [8] was determined as 98%. In the series on RAW264.7 [9], the IC50 was determined as 3.92 µg/mL (≈ 13 µM).

`COc1ccc(CCC(=O)c2cccc(O)c2)cc1OC`: the inhibition at 1.25 µg/mL with RAW264.7 [1] was 5.4%. Moreover, the viability at 24 h, 2.5 ug/ml in series [2] came to 98.9%. Besides, the viability at 24 h, 10 ug/ml in [3] was determined as 97.9%. For the same compound, the inhibition at 10 µg/mL with RAW264.7 [4] worked out at 55.8%. The inhibition at 5 µg/mL in the series with RAW264.7 [5] was determined as 46.2%. Besides, the viability at 24 h, 5 ug/ml in [6] was determined as 98%. For the same compound, in the series with RAW264.7 [7], the inhibition at 2.5 µg/mL worked out at 18.6%. The viability at 24 h, 1.25 ug/ml in series [8] amounted to 101%. In addition, in the series on RAW264.7 [9], the half-maximal inhibitory concentration (IC50) stood at 6.58 µg/mL (≈ 23 µM).

Consider `COc1ccc(CCCc2ccc3c(c2)OCO3)c(OC)c1`, for which, in the series on RAW264.7 [1], the inhibition at 1.25 µg/mL amounted to 16.9%. Further, the viability at 24 h, 2.5 ug/ml in series [2] came out at 97.7%. In series [3], the viability at 24 h, 10 ug/ml worked out at 94.7%. Besides, the inhibition at 10 µg/mL with RAW264.7 [4] worked out at 44.6%. The inhibition at 5 µg/mL in the series on RAW264.7 [5] is 28%. Moreover, the viability at 24 h, 5 ug/ml in [6] stood at 97.2%. Besides, in the series on RAW264.7 [7], the inhibition at 2.5 µg/mL is 20.1%. Also, the viability at 24 h, 1.25 ug/ml in [8] was determined as 99.1%. For the same compound, the 50% inhibitory concentration (IC50) in the series on RAW264.7 [9] was above 10 µg/mL.

For the compound `COc1cccc(CCCc2cccc(O)c2)c1OC`, in the series on RAW264.7 [1], the inhibition at 1.25 µg/mL was found to be 16.3%. For the same compound, in series [2], the viability at 24 h, 2.5 ug/ml was found to be 97.4%. Moreover, in series [3], the viability at 24 h, 10 ug/ml is 69.6%. Besides, the inhibition at 10 µg/mL in the series with RAW264.7 [4] is 63.9%. The inhibition at 5 µg/mL with RAW264.7 [5] turned out to be 18.3%. Moreover, the viability at 24 h, 5 ug/ml in series [6] turned out to be 96.1%. In addition, the inhibition at 2.5 µg/mL with RAW264.7 [7] came out at 18.4%. In addition, in [8], the viability at 24 h, 1.25 ug/ml was 97.1%. Also, the IC50 in the series on RAW264.7 [9] was 8.09 µg/mL (≈ 29.7 µM).

Broadly, the inhibition is the relative decrease from the control value, in per cent. The IC50 is the concentration at which inhibition is half-maximal.
